Test results published in patent US11884668B1, “Substituted pyrido[3′,4′:4,5]pyrrolo[2,3-c]quinolines as CK2 inhibitors” (KING FAISAL UNIVERSITY, priority 2023, dated 2024).

Columns and labels:
HCT116 (colon) = assay: In vitro cytotoxic activity assay (MTT), HCT116; type: cell-based; settings: Homo sapiens, HCT-116; HCT116 (colon) cells, exposed for 96 hours; read-out: IC50, concentration of compound eliciting a 50% inhibition of cell proliferation
Method: (§1) Compounds 1-16 were screened for their in vitro cytotoxic activity utilizing a 3-(4,5-dimethyl-thiazol-2-yl)-2,5-diphenyltetrazolium bromide (MTT) assay against selected cancer human cell lines consisting of PC3 (prostate), HCT116 (colon), A375 (melanoma), H1299 (lung), MIAPaCa-2 (pancreas), HL60 (leukemia), MCF7 (breast), MDA-MB-231 (breast) (T. Mosmann, J. Immunol. Meth., 1983, 65, 55-63). The cells were cultured at 37° C. in RMPI1640 medium supplemented with 10% fetal bovine serum, 50 IU/mL penicillin, and 50 μg/mL streptomycin in a 5% CO2 incubator. All cells were sub-cultured 3 times/week by trypsinisation. Viable cells were seeded and allowed to adhere for 12 h before a test drug was added in 96-well plates at an initial density of 1.0×10^5 cells/mL. Tumour cell lines were separately exposed to various concentrations of the tested compounds followed by incubation at a temperature of 37° C. during 96 h inside a medium of fresh RMPI 1640. Cells were subsequently incubated at 37° C. using MTT at 0.5 mg/mL during 4 h. After removal of supernatant, formazan crystals were dissolved in isopropanol and the optical density was measured at 570 nm. CX-4945 was used as a positive control.

MIAPaCa-2 (pancreas) = assay: In vitro cytotoxic activity assay (MTT), MIAPaCa-2; type: cell-based; settings: Homo sapiens, MIA PaCa-2; MIAPaCa-2 (pancreas) cells, exposed for 96 hours; read-out: IC50, concentration of compound eliciting a 50% inhibition of cell proliferation
Method: as §1

PC3 (prostate) = assay: In vitro cytotoxic activity assay (MTT), PC3; type: cell-based; settings: Homo sapiens, Prostate cell; PC3 (prostate) cells, exposed for 96 hours; read-out: IC50, concentration of compound eliciting a 50% inhibition of cell proliferation
Method: as §1

H1299 (lung) = assay: In vitro cytotoxic activity assay (MTT), H1299; type: cell-based; settings: Homo sapiens, NCI-H1299; H1299 (lung) cells, exposed for 96 hours; read-out: IC50, concentration of compound eliciting a 50% inhibition of cell proliferation
Method: as §1

A375 (melanoma) = assay: In vitro cytotoxic activity assay (MTT), A375; type: cell-based; settings: Homo sapiens, A-375; A375 (melanoma) cells, exposed for 96 hours; read-out: IC50, concentration of compound eliciting a 50% inhibition of cell proliferation
Method: as §1

MDA-MB-231 (breast) = assay: In vitro cytotoxic activity assay (MTT), MDA-MB-231; type: cell-based; settings: Homo sapiens; MDA-MB-231 (breast) cells, exposed for 96 hours; read-out: IC50, concentration of compound eliciting a 50% inhibition of cell proliferation
Method: as §1

HL60 (leukemia) = assay: In vitro cytotoxic activity assay (MTT), HL60; type: cell-based; settings: Homo sapiens, HL-60; HL60 (leukemia) cells, exposed for 96 hours; read-out: IC50, concentration of compound eliciting a 50% inhibition of cell proliferation
Method: as §1

recombinant human CK2 = biological target: T1, recombinant human CK2 (Homo sapiens, UniProt P68400); assay: CK2 Kinase Assay (radiometric, [γ-33P]ATP); type: biochemical; settings: final ATP concentration 15 μM, 10 min at 30° C.; read-out: protein kinase CK2 activity IC50
T1 construct: purchased Millipore
T1 sequence (P68400 whole entry): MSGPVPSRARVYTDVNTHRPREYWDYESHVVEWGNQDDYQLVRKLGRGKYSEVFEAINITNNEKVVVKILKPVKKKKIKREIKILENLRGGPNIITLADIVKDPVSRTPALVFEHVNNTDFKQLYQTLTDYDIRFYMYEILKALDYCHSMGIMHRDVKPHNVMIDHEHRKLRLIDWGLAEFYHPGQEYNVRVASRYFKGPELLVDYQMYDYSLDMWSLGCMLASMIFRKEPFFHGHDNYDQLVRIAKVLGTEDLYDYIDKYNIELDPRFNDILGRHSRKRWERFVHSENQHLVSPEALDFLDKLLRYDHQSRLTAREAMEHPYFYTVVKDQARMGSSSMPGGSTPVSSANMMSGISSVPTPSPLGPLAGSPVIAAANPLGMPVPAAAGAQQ
T1 sequence (P67870 whole entry partner): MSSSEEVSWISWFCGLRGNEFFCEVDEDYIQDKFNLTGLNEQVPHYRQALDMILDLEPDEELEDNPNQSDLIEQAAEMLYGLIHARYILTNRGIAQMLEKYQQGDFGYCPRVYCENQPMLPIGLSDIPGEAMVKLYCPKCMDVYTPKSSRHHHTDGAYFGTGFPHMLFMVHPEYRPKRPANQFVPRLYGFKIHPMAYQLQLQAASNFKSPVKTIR
Method: CK2 Kinase Assay was conducted using the protocol as described in Pierre F. et al; J. Med. Chem. 2011, 54, 635-654. The tested compounds in aqueous solution were added at a volume of 10 μL to a reaction mixture comprising 10 μL of assay dilution buffer (ADB; 20 mM MOPS, pH 7.2, 25 mM β-glycerol phosphate, 5 mM EGTA, 1 mM sodium orthovanadate, and 1 mM dithiothreitol), 10 μL of substrate peptide (RRRDDDSDDD, dissolved in ADB at a concentration of 1 mM), 10 μL of recombinant human CK2 (RROP-holoenzyme, 25 ng dissolved in ADB; Millipore). Reactions were initiated by the addition of 10 μL of ATP solution (90% 75 mMMgCl2, 75 μM ATP (final ATP concentration:15 μM) dissolved in ADB; 10% [γ-33P] ATP (stock 1mCi/100 L; 3000 Ci/mmol (Perkin-Elmer) and maintained for 10 min at 30° C. The reactions were quenched with 100 μL of 0.75% phosphoric acid and then transferred to and filtered through a phosphor cellulose filter plate (Millipore). After washing each well five times with 0.75% phosphoric acid, the plate was dried under vacuum for 5 min and, following the addition of 15 μL of scintillation fluid to each well, the residual radioactivity was measured using a Wallac luminescence counter. The IC50 values were derived from eight concentrations of test inhibitors.

MCF7 (breast) = assay: In vitro cytotoxic activity assay (MTT), MCF7; type: cell-based; settings: Homo sapiens; MCF7 (breast) cells, exposed for 96 hours; read-out: IC50, concentration of compound eliciting a 50% inhibition of cell proliferation
Method: as §1

Compound `O=C(O)c1ccc2c(c1)nc(Nc1cccc(Cl)c1)c1[nH]c3ccncc3c12` [Compound 1, 6-((3-chlorophenyl)amino)-7H-pyrido[3′,4′:4,5]pyrrolo[2,3-c]quinoline-3-carboxylic acid] has an IC50 (HCT116 (colon)) of 1500 nM, an IC50 (MIAPaCa-2 (pancreas)) of 1100 nM and an IC50 (PC3 (prostate)) of 1100 nM. The IC50 (H1299 (lung)) was 1900 nM, the IC50 (A375 (melanoma)) was 3300 nM and the IC50 (MDA-MB-231 (breast)) was 2500 nM. For the same compound, the IC50 (HL60 (leukemia)) was 2800 nM, the IC50 (recombinant human CK2) was 175 nM and the IC50 (MCF7 (breast)) was 4100 nM.
